# Test results as given in patent publication US8802597B2, “Herbicidal pyrimidines” (E I du Pont de Nemours and Company, priority 2003, dated 2014).
# Tests used:
# Test in all cases: Test G pre/postemergence
# Type in all cases: in vivo
# [1] = system: guineagrass (Panicum maximum)
# Method in brief: (§1)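 Test chemicals in non-phytotoxic solvent with surfactant applied preemergence to sown seeds or nutlets and postemergence to plants 2–18 cm tall (1- to 4-leaf stage). Greenhouse-held 12–21 days, then visually rated against untreated controls on a 0 (no effect) to 100 (complete control) scale.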
# [2] = system: common ragweed (Ambrosia elatior)
# Method in brief: as §1
# [3] = system: Russian thistle (Salsola kali)
# Method in brief: as §1
# [4] = system: common purslane (Portulaca oleracea)
# Method in brief: as §1
# [5] = system: itchgrass (Rottboellia cochinchinensis)
# Method in brief: as §1
# [6] = system: bermudagrass (Cynodon dactylon)
# Method in brief: as §1
# [7] = system: common groundsel (Senecio vulgaris)
# Method in brief: as §1
# [8] = system: dallisgrass (Paspalum dilatatum)
# Method in brief: as §1
# [9] = system: Surinam grass (Brachiaria decumbens)
# Method in brief: as §1
# kochia (Kochia scoparia) = system: kochia (Kochia scoparia)
# Method in brief: as §1
# [10] = Postemergence, 250 g ai/ha, scale 0 to 100
# [11] = Postemergence, 16 g ai/ha, scale 0 to 100
# [12] = Postemergence, 31 g ai/ha, scale 0 to 100
# [13] = Postemergence, 62 g ai/ha, scale 0 to 100
# [14] = Postemergence, 125 g ai/ha, scale 0 to 100
# [15] = Preemergence, 16 g ai/ha, scale 0-100
# [16] = Preemergence, 31 g ai/ha, scale 0-100
# [17] = Preemergence, 62 g ai/ha, scale 0-100
# [18] = Preemergence, 125 g ai/ha, scale 0-100
# [19] = Preemergence, 250 g ai/ha, scale 0-100
smiles,measurement,setting,value
"Nc1nc(C2CC2)nc(C(=O)OCc2ccccc2)c1Br [Compound 22, phenylmethyl 6-amino-5-bromo-2-cyclopropyl-4-pyrimidinecarboxylate]","Plant response rating, Guineagrass",[1]; [10],100
same,"Plant response rating, Guineagrass",[1]; [11],5
same,"Plant response rating, Guineagrass",[1]; [12],55
same,"Plant response rating, Guineagrass",[1]; [13],65
same,"Plant response rating, Guineagrass",[1]; [14],95
same,"Plant response rating, Guineagrass",[1]; [15],0
same,"Plant response rating, Guineagrass",[1]; [16],35
same,"Plant response rating, Guineagrass",[1]; [17],75
same,"Plant response rating, Guineagrass",[1]; [18],90
same,"Plant response rating, Guineagrass",[1]; [19],95
same,"Plant response rating, Ragweed",[2]; [10],100
same,"Plant response rating, Ragweed",[2]; [11],65
same,"Plant response rating, Ragweed",[2]; [12],85
same,"Plant response rating, Ragweed",[2]; [13],98
same,"Plant response rating, Ragweed",[2]; [14],98
same,"Plant response rating, Ragweed",[2]; [15],65
same,"Plant response rating, Ragweed",[2]; [16],75
same,"Plant response rating, Ragweed",[2]; [17],90
same,"Plant response rating, Ragweed",[2]; [18],95
same,"Plant response rating, Ragweed",[2]; [19],100
same,"Plant response rating, Russian Thistle",[3]; [10],100
same,"Plant response rating, Russian Thistle",[3]; [11],95
same,"Plant response rating, Russian Thistle",[3]; [12],100
same,"Plant response rating, Russian Thistle",[3]; [13],100
same,"Plant response rating, Russian Thistle",[3]; [14],100
same,"Plant response rating, Russian Thistle",[3]; [15],65
same,"Plant response rating, Russian Thistle",[3]; [16],75
same,"Plant response rating, Russian Thistle",[3]; [17],95
same,"Plant response rating, Russian Thistle",[3]; [18],100
same,"Plant response rating, Russian Thistle",[3]; [19],100
same,"Plant response rating, Purslane",[4]; [10],98
same,"Plant response rating, Purslane",[4]; [11],50
same,"Plant response rating, Purslane",[4]; [12],55
same,"Plant response rating, Purslane",[4]; [13],85
same,"Plant response rating, Purslane",[4]; [14],95
same,"Plant response rating, Purslane",[4]; [15],0
same,"Plant response rating, Purslane",[4]; [16],0
same,"Plant response rating, Purslane",[4]; [17],50
same,"Plant response rating, Purslane",[4]; [18],70
same,"Plant response rating, Purslane",[4]; [19],75
same,"Plant response rating, Itchgrass",[5]; [10],85
same,"Plant response rating, Itchgrass",[5]; [11],15
same,"Plant response rating, Itchgrass",[5]; [12],25
same,"Plant response rating, Itchgrass",[5]; [13],50
same,"Plant response rating, Itchgrass",[5]; [14],75
same,"Plant response rating, Itchgrass",[5]; [15],0
same,"Plant response rating, Itchgrass",[5]; [16],0
same,"Plant response rating, Itchgrass",[5]; [17],20
same,"Plant response rating, Itchgrass",[5]; [18],40
same,"Plant response rating, Itchgrass",[5]; [19],65
same,"Plant response rating, Bermudagrass",[6]; [10],65
same,"Plant response rating, Bermudagrass",[6]; [11],15
same,"Plant response rating, Bermudagrass",[6]; [12],35
same,"Plant response rating, Bermudagrass",[6]; [13],35
same,"Plant response rating, Bermudagrass",[6]; [14],40
same,"Plant response rating, Bermudagrass",[6]; [15],0
same,"Plant response rating, Bermudagrass",[6]; [16],0
same,"Plant response rating, Bermudagrass",[6]; [17],0
same,"Plant response rating, Bermudagrass",[6]; [18],0
same,"Plant response rating, Bermudagrass",[6]; [19],30
same,"Plant response rating, Groundsel",[7]; [11],65
same,"Plant response rating, Groundsel",[7]; [12],65
same,"Plant response rating, Groundsel",[7]; [13],65
same,"Plant response rating, Groundsel",[7]; [14],85
same,"Plant response rating, Groundsel",[7]; [16],0
same,"Plant response rating, Groundsel",[7]; [19],50
same,"Plant response rating, Dallisgrass",[8]; [10],75
same,"Plant response rating, Dallisgrass",[8]; [11],0
same,"Plant response rating, Dallisgrass",[8]; [12],0
same,"Plant response rating, Dallisgrass",[8]; [13],15
same,"Plant response rating, Dallisgrass",[8]; [14],25
same,"Plant response rating, Dallisgrass",[8]; [15],0
same,"Plant response rating, Dallisgrass",[8]; [16],0
same,"Plant response rating, Dallisgrass",[8]; [17],0
same,"Plant response rating, Dallisgrass",[8]; [18],40
same,"Plant response rating, Dallisgrass",[8]; [19],50
same,"Plant response rating, Surinam Grass",[9]; [10],95
same,"Plant response rating, Surinam Grass",[9]; [11],0
same,"Plant response rating, Surinam Grass",[9]; [12],15
same,"Plant response rating, Surinam Grass",[9]; [13],35
same,"Plant response rating, Surinam Grass",[9]; [14],65
same,"Plant response rating, Surinam Grass",[9]; [15],0
same,"Plant response rating, Surinam Grass",[9]; [16],0
same,"Plant response rating, Surinam Grass",[9]; [17],0
same,"Plant response rating, Surinam Grass",[9]; [18],35
same,"Plant response rating, Surinam Grass",[9]; [19],90
same,"Plant response rating, Kochia",kochia (Kochia scoparia); [10],100
same,"Plant response rating, Kochia",kochia (Kochia scoparia); [11],98
same,"Plant response rating, Kochia",kochia (Kochia scoparia); [12],98
same,"Plant response rating, Kochia",kochia (Kochia scoparia); [13],98
same,"Plant response rating, Kochia",kochia (Kochia scoparia); [14],100
same,"Plant response rating, Kochia",kochia (Kochia scoparia); [15],35
same,"Plant response rating, Kochia",kochia (Kochia scoparia); [16],70
same,"Plant response rating, Kochia",kochia (Kochia scoparia); [17],98
same,"Plant response rating, Kochia",kochia (Kochia scoparia); [18],100
same,"Plant response rating, Kochia",kochia (Kochia scoparia); [19],100
